Patent US20120258481A1, “CROSS-LINKING ATP ANALOGS” (WAYNE STATE UNIVERSITY, priority 2011, published 2012)

How the values were obtained:
CK2 and α-casein = target: T1, CK2 and α-casein (Homo sapiens, UniProt P68400); assay: Kinase-catalyzed photocrosslinking with full-length α-casein, SDS-PAGE, coomassie and CK2 western blot; assay type: biochemical; conditions: α-casein 100 μM, co-substrate 1.3 mM, 365 nm UV; CK2 immunoblot
T1 construct: purchased New England Biolabs (NEB)
Procedure: Having established phosphorylation-dependent crosslinking between kinase and peptide substrate, crosslinking with a full-length protein substrate was tested. The α-casein protein has been widely used as a model CK2 substrate in phosphoprotein analysis. Crosslinking was carried out by incubating a mixture of CK2 and α-casein with ATP-ArN3 in the presence of UV light. The products were separated by SDS-PAGE and analyzed by coomassie staining (FIG. 3a) and western blot analysis (FIG. 3b). […] Because phosphate transfer is required, a powerful feature of ATP-ArN3-mediated crosslinking is that a kinase substrate is necessarily present in the crosslinked product. Coupled with mass spectrometric analysis, phosphorylation-dependent kinase-substrate crosslinking can determine the sites of phosphorylation in addition to the effector kinase. Importantly, the crosslinking approach is appropriate for studies with cell lysates or homogenized tissue samples since natural kinase and substrate are utilized. […] The reaction products were separated by SDS-PAGE and visualized by coomassie staining, silver staining, in-gel fluorescence imaging, or western blotting with a CK2 antibody (Millipore) after transfer onto a PVDF membrane (Immobilon-PSQ, Millipore). […] The reaction mixtures were incubated for 2 hours at 30° C. before quantitative MALDI-TOF MS analysis (Bruker Daltonics), as previously described. […]

CK2 kinase = target: T2, CK2 kinase (Homo sapiens, UniProt P68400); assay: Kinase-catalyzed photocrosslinking with peptide substrate Rho-14, in-gel fluorescence; assay type: biochemical; conditions: Rho-14 200 μM, co-substrate 1.3 mM, 365 nm UV 2 hours at 30° C.
T2 construct: purchased New England Biolabs (NEB)
T2 sequence (P68400 whole entry): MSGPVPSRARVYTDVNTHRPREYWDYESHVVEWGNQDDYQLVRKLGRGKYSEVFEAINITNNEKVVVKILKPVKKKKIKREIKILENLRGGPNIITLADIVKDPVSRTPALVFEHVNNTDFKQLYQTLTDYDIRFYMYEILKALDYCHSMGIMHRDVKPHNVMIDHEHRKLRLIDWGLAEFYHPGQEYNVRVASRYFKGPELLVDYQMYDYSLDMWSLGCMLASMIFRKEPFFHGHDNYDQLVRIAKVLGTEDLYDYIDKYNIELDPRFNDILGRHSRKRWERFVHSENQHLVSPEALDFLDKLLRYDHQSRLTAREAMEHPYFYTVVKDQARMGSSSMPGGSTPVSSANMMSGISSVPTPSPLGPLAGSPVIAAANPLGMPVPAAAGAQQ
T2 sequence (P67870 whole entry partner): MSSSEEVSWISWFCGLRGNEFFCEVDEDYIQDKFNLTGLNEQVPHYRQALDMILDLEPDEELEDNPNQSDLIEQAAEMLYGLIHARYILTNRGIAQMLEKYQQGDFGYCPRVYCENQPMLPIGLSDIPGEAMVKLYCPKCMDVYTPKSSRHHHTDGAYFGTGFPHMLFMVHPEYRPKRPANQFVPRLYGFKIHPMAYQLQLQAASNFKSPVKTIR
Procedure: Crosslinking was tested by incubating CK2 kinase and ATP-ArN3 with rhodamine-labeled CK2 peptide substrate 14 (Rho-[sequence], Rho-14). Simultaneously, the reaction mixture was irradiated with 365 nm light to afford a covalent crosslink (FIG. 1c). If kinase-substrate crosslinking occurred, the kinase was expected to become fluorescently labeled, which would be visualized by gel electrophoresis. […] As a final critical control, the crosslinked product was treated with acid to cleave the phosphoramidate bond bridging the peptide and kinase (FIG. 1c).
Photocrosslinking was initiated by irradiating with a handheld UV lamp at 365 nm for 2 hours at 30° C. The phosphoramidate bond in the crosslinked products was cleaved by adding trifluoroacetic acid (TFA) to a final concentration of 50% and incubating at 16° C. for 3 hours. The reaction products were separated by SDS-PAGE and visualized by coomassie staining, silver staining, in-gel fluorescence imaging, or western blotting with a CK2 antibody (Millipore) after transfer onto a PVDF membrane (Immobilon-PSQ, Millipore).
For the photocrosslinking experiments, CK2 (50 units/μL, 0.7 μM) was incubated with either Rho-14 (200 μM,) or full length α-casein (100 μM, Sigma), while Abl (20 units/μL, 44.4 nM) was incubated with ROX-13 (200 μM). All reactions also contained ATP or ATP-ArN3 (1.3 mM) and the manufacturers' kinase buffer.

T1 sequence (P68400 whole entry): as the sequence (P68400 whole entry) above
T1 sequence (P67870 whole entry partner): as the sequence (P67870 whole entry partner) above

Nc1ncnc2c1ncn2[C@@H]1O[C@H](COP(=O)(O)OP(=O)(O)OP(=O)(O)O)[C@@H](O)[C@H]1O [ATP, Adenosine 5′-triphosphate]
CK2-α-casein crosslinked complex (68 kDa) formation (CK2 and α-casein): crosslinked complex was absent
fluorophore labeling of CK2 (kinase-substrate crosslinking) (CK2 kinase): no fluorescence labeling was observed
